Results taken from article PMC10648852, “Molecular drivers of resistance to sulbactam-durlobactam in contemporary clinical isolates of Acinetobacter baumannii” (Antimicrobial Agents and Chemotherapy, 2023).
Where “and” joins values, the source holds several entries; their conditions need not be identical. Equal entries are not always repeated. Where two headings read alike, the source gives them in different places.

Legend:
[1] = test system: ABC clinical isolates with SUL-DUR MIC > 4 µg/mL; assay: microbe, parasite or virus in culture; format: cell-based, Acinetobacter baumannii-calcoaceticus complex
How it was run: (§1)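 Broth microdilution MICs following CLSI methods, interpreted with CLSI breakpoints where available. Sulbactam tested as twofold dilutions combined with fixed 4 µg/mL durlobactam.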

[2] = test system: A. baumannii clinical isolates; assay: microbe, parasite or virus in culture; format: cell-based; conditions: Acinetobacter baumannii
How it was run: as §1

[3] = test system: A. nosocomialis clinical isolate; assay: microbe, parasite or virus in culture; format: cell-based; conditions: Acinetobacter nosocomialis, isolate ARC7023 (IHMA 2118812), France, BSI, 2019, read-out: MIC
How it was run: as §1

[4] = test system: A. pittii clinical isolates; assay: microbe, parasite or virus in culture; format: cell-based; conditions: Acinetobacter pittii
How it was run: as §1

A. baumannii PBP3 S390T = test system: A. baumannii PBP3 S390T; design: method as in McLeod et al. (2018); conditions: average ± SD, ref McLeod et al. (2018); cited from earlier work
A. baumannii PBP3 S395F [5] = test system: A. baumannii PBP3 S395F; design: method as in McLeod et al. (2018); conditions: average ± SD, ref McLeod et al. (2018); cited from earlier work
[6] = test system: A. baumannii wild-type PBP3; assay: Acylation rate constant (kinact/Ki), fluorescence anisotropy competition with BOCILLIN; conditions: Wildtype PBP3
A. baumannii PBP3 H370Y = assay: as above
A. baumannii PBP3 N377Y = assay: as above
A. baumannii PBP3 N392T = assay: as above
A. baumannii PBP3 S395F [7] = assay: as above; conditions: variant data from McLeod et al. (2018)
A. baumannii PBP3 Q488K = assay: as above

CC1(C)[C@H](C(=O)O)N2C(=O)C[C@H]2S1(=O)=O [sulbactam]
~ 120%: % WT (A. baumannii PBP3 N392T)
32 µg/mL: MIC ([2]; isolate ARC6823 (IHMA 1620872), Greece, SSSI, 2017, read-out: MIC) | MIC ([2]; isolate ARC7019 (IHMA 2114463), Thailand, RTI, 2019, read-out: MIC) | MIC ([2]; isolate ARC7020 (IHMA 2045326), Guatemala, RTI, 2019, read-out: MIC) | MIC ([2]; isolate ARC7022 (IHMA 2045319), Guatemala, IAI, 2019, read-out: MIC) | MIC ([2]; isolate ARC7025 (IHMA 2002121), Spain, RTI, 2019, read-out: MIC) | MIC ([2]; isolate ARC7026 (IHMA 2104494), Guatemala, BSI, 2019, read-out: MIC) | MIC ([2]; isolate ARC7086 (IHMA 2207563), Israel, RTI, 2020, read-out: MIC) | MIC [3]
~ 120% and 126%: % WT (A. baumannii PBP3 H370Y)
> 64 µg/mL: MIC50 ([1]; Acinetobacter) | MIC90 ([1]; Acinetobacter) | MIC ([1]; Acinetobacter, read-out: MIC Max) | MIC ([2]; isolate ARC6645 (IHMA 1435703), France, UTI, 2016, read-out: MIC) | MIC ([2]; isolate ARC6646 (IHMA 1484127), United States, RTI, 2016, read-out: MIC) | MIC ([2]; isolate ARC6647 (IHMA 1386786), Argentina, RTI, 2016, read-out: MIC) | MIC ([2]; isolate ARC6652 (IHMA 1465642), Belgium, RTI, 2016, read-out: MIC) | MIC ([2]; isolate ARC6653 (IHMA 1308777), Vietnam, RTI, 2016, read-out: MIC) | MIC ([2]; isolate ARC6799 (IHMA 1562935), Spain, UTI, 2017, read-out: MIC) | MIC ([2]; isolate ARC6802 (IHMA 1557073), Spain, UTI, 2017, read-out: MIC) | MIC ([2]; isolate ARC6803 (IHMA 1589408), Belgium, UTI, 2017, read-out: MIC) | MIC ([2]; isolate ARC6809 (IHMA 1699528), Guatemala, RTI, 2017, read-out: MIC) | MIC ([2]; isolate ARC6810 (IHMA 1699548), Guatemala, RTI, 2017, read-out: MIC) | MIC ([2]; isolate ARC6812 (IHMA 1699530), Guatemala, RTI, 2017, read-out: MIC) | MIC ([2]; isolate ARC6813 (IHMA 1699543), Guatemala, UTI, 2017, read-out: MIC) | MIC ([2]; isolate ARC6814 (IHMA 1699512), Guatemala, RTI, 2017, read-out: MIC) | MIC ([2]; isolate ARC6815 (IHMA 1699513), Guatemala, RTI, 2017, read-out: MIC) | MIC ([2]; isolate ARC6816 (IHMA 1699521), Guatemala, RTI, 2017, read-out: MIC) | MIC ([2]; isolate ARC6817 (IHMA 1699523), Guatemala, RTI, 2017, read-out: MIC) | MIC ([2]; isolate ARC6819 (IHMA 1683267), Thailand, RTI, 2017, read-out: MIC) | MIC ([2]; isolate ARC6820 (IHMA 1647876), Argentina, RTI, 2017, read-out: MIC) | MIC ([2]; isolate ARC6821 (IHMA 1699517), Guatemala, RTI, 2017, read-out: MIC) | MIC ([2]; isolate ARC6822 (IHMA 1637626), Guatemala, RTI, 2017, read-out: MIC) | MIC ([2]; isolate ARC6937 (IHMA 1562926), Spain, UTI, 2017, read-out: MIC) | MIC ([2]; isolate ARC6954 (IHMA 1838192), Guatemala, SSSI, 2018, read-out: MIC) | MIC ([2]; isolate ARC7008 (IHMA 2009813), Thailand, BSI, 2019, read-out: MIC) | MIC ([2]; isolate ARC7009 (IHMA 2043611), United States, UTI, 2019, read-out: MIC) | MIC ([2]; isolate ARC7010 (IHMA 2043398), United States, RTI, 2019, read-out: MIC) | MIC ([2]; isolate ARC7011 (IHMA 2104553), Germany, RTI, 2019, read-out: MIC) | MIC ([2]; isolate ARC7012 (IHMA 2010001), Thailand, RTI, 2019, read-out: MIC) | MIC ([2]; isolate ARC7013 (IHMA 1962831), Argentina, RTI, 2019, read-out: MIC) | MIC ([2]; isolate ARC7015 (IHMA 2045327), Guatemala, UTI, 2019, read-out: MIC) | MIC ([2]; isolate ARC7018 (IHMA 2045454), Guatemala, IAI, 2019, read-out: MIC) | MIC ([2]; isolate ARC7021 (IHMA 1966347), Guatemala, RTI, 2019, read-out: MIC) | MIC ([2]; isolate ARC7082 (IHMA 2160640), Belgium, BSI, 2020, read-out: MIC) | MIC ([2]; isolate ARC7084 (IHMA 2189596), Germany, RTI, 2020, read-out: MIC) | MIC ([2]; isolate ARC7085 (IHMA 2205747), Guatemala, IAI, 2020, read-out: MIC) | MIC ([2]; isolate ARC7088 (IHMA 2215554), Turkey, BSI, 2020, read-out: MIC) | MIC ([2]; isolate ARC7089 (IHMA 2240345), Argentina, BSI, 2020, read-out: MIC) | MIC ([2]; isolate ARC7090 (IHMA 2244410), Poland, RTI, 2020, read-out: MIC) | MIC ([2]; isolate ARC7091 (IHMA 2244564), Australia, RTI, 2020, read-out: MIC) | MIC ([2]; isolate ARC7092 (IHMA 2258772), United States, BSI, 2020, read-out: MIC) | MIC ([2]; isolate ARC7094 (IHMA 2296423), Turkey, RTI, 2020, read-out: MIC) | MIC ([2]; isolate ARC7156 (IHMA 2455450), Greece, RTI, 2021, read-out: MIC) | MIC ([2]; isolate ARC7158 (IHMA 2523738), Italy, BSI, 2021, read-out: MIC) | MIC ([2]; isolate ARC7159 (IHMA 2456229), Malaysia, RTI, 2021, read-out: MIC) | MIC ([2]; isolate ARC7162 (IHMA 2411847), United States, BSI, 2021, read-out: MIC) | MIC ([2]; isolate ARC7163 (IHMA 2477704), United States, BSI, 2021, read-out: MIC) | MIC ([4]; isolate ARC6951 (IHMA 1776233), Philippines, RTI, 2018, read-out: MIC) | MIC ([4]; isolate ARC6952 (IHMA 1899008), Romania, RTI, 2018, read-out: MIC)
18 ± 1 ([2]) M^-1s^-1: k inact/K i (A. baumannii PBP3 N392T; average ± SD)
0.63 ± 0.06 ([3]) M^-1s^-1: k inact/K i (A. baumannii PBP3 S395F [5])
60%–73%: % WT (A. baumannii PBP3 N377Y) | % WT (A. baumannii PBP3 Q488K)
19 ± 2 ([2]) M^-1s^-1: k inact/K i (A. baumannii PBP3 H370Y; average ± SD)
100%: %NS (% non-susceptibility) ([1]; 64 non-clonal ABC isolates, 2023 CLSI breakpoints plus FDA breakpoint of 4 µg/mL for SUL-DUR) | % WT [6]
66%: % WT (A. baumannii PBP3 Q488K; listed as Sulbactam)
15 ± 3 ([10]) M^-1s^-1: k inact/K i ([6]; average ± SD)
126.7%: % WT (A. baumannii PBP3 H370Y; listed as Sulbactam)
16 µg/mL: MIC ([2]; isolate ARC6808 (IHMA 1557168), Spain, RTI, 2017, read-out: MIC) | MIC ([2]; isolate ARC6955 (IHMA 1825425), United States, RTI, 2018, read-out: MIC)
73.3%: % WT (A. baumannii PBP3 N377Y; listed as Sulbactam)
120%: % WT (A. baumannii PBP3 N392T; listed as Sulbactam)
9.9 ± 0.3 ([2]) M^-1s^-1: k inact/K i (A. baumannii PBP3 Q488K; average ± SD)
0.03 ± 0.02 ([3]) M^-1s^-1: k inact/K i (A. baumannii PBP3 S390T)
11 ± 2 ([2]) M^-1s^-1: k inact/K i (A. baumannii PBP3 N377Y; average ± SD)
4.2%: % WT (A. baumannii PBP3 S395F [7])
64 µg/mL: MIC ([2]; isolate ARC6644 (IHMA 1420327), Mexico, UTI, 2016, read-out: MIC) | MIC ([2]; isolate ARC6648 (IHMA 1407634), Spain, RTI, 2016, read-out: MIC) | MIC ([2]; isolate ARC6650 (IHMA 1457337), Argentina, RTI, 2016, read-out: MIC) | MIC ([2]; isolate ARC6800 (IHMA 1557526), Turkey, RTI, 2017, read-out: MIC) | MIC ([2]; isolate ARC6801 (IHMA 1662094), Thailand, RTI, 2017, read-out: MIC) | MIC ([2]; isolate ARC6805 (IHMA 1558650), United States, RTI, 2017, read-out: MIC) | MIC ([2]; isolate ARC6818 (IHMA 1683261), Thailand, RTI, 2017, read-out: MIC) | MIC ([2]; isolate ARC6824 (IHMA 1625487), Argentina, BSI, 2017, read-out: MIC) | MIC ([2]; isolate ARC6950 (IHMA 1820064), Israel, RTI, 2018, read-out: MIC) | MIC ([2]; isolate ARC6953 (IHMA 1909827), Turkey, IAI, 2018, read-out: MIC) | MIC ([2]; isolate ARC7014 (IHMA 2045328), Guatemala, IAI, 2019, read-out: MIC) | MIC ([2]; isolate ARC7016 (IHMA 2148441), Brazil, BSI, 2019, read-out: MIC) | MIC ([2]; isolate ARC7017 (IHMA 2148446), Brazil, BSI, 2019, read-out: MIC) | MIC ([2]; isolate ARC7024 (IHMA 2059448), Turkey, RTI, 2019, read-out: MIC) | MIC ([2]; isolate ARC7083 (IHMA 2163687), United States, RTI, 2020, read-out: MIC) | MIC ([2]; isolate ARC7093 (IHMA 2258783), United States, RTI, 2020, read-out: MIC) | MIC ([2]; isolate ARC7095 (IHMA 2320843), Turkey, BSI, 2020, read-out: MIC) | MIC ([2]; isolate ARC7160 (IHMA 2458626), Thailand, RTI, 2021, read-out: MIC) | MIC ([4]; isolate ARC6949 (IHMA 1898982), Romania, RTI, 2018, read-out: MIC) | MIC ([4]; isolate ARC7087 (IHMA 2212062), Colombia, BSI, 2020, read-out: MIC)
8 µg/mL: MIC ([1]; Acinetobacter, read-out: MIC Min) | MIC ([2]; isolate ARC7161 (IHMA 2429252), Ukraine, RTI, 2021, read-out: MIC)
